Measured values taken from patent publication US20230117328A1, “METHODS TO TREAT CANCER USING (R)-N-(3-FLUORO-4-((3-((1-HYDROXYPROPAN-2-YL)AMINO)-1H-PYRAZOLO[3,4-B]PYRIDIN-4-YL)OXY)PHENYL)-3-(4-FLUOROPHENYL)-1-ISOPROPYL-2,4-DIOXO-1,2,3,4-TETRAHYDROPYRIMIDINE-5-CARBOXAMIDE” (Array BioPharma Inc., priority 2020, published 2023).
Entries after “also recorded” stand apart in the source; their conditions may differ.

How the values were obtained:
in vivo = conditions: female, rat
[1] = Tolerability (body weight loss, deaths) in MC-38 tumor-bearing cohorts; type: in vivo; conditions: for Deaths (any cause) / Maximum % Body Weight Loss: MC-38 tumor-bearing mice
Experimental: As monotherapy, anti-PD-1 was administered twice weekly (BIW) for 2 consecutive weeks by intraperitoneal (IP) injection at 200 μg/mouse (Days 10, 13, 17, and 20).
Animals were monitored for tumor growth and body weight 2-3 times per week based on outgrowth kinetics. Tumor diameter was measured with digital calipers, and the tumor volume in mm^3 was calculated by the formula: Volume=((width)^2×length)/2. Animals were removed from study if found moribund or if tumor volume exceeded 1500 mm^3.
Any animals remaining with no palpable tumors were scored as cures.
Survival was defined as morbidity, mortality or tumor size exceeding 1500 mm^3.

CYP3A4 = CYP3A4 (Homo sapiens, UniProt P08684); test: In vitro metabolism by CYP3A4; type: in vitro ADME
Sequence of CYP3A4 (P08684 whole entry): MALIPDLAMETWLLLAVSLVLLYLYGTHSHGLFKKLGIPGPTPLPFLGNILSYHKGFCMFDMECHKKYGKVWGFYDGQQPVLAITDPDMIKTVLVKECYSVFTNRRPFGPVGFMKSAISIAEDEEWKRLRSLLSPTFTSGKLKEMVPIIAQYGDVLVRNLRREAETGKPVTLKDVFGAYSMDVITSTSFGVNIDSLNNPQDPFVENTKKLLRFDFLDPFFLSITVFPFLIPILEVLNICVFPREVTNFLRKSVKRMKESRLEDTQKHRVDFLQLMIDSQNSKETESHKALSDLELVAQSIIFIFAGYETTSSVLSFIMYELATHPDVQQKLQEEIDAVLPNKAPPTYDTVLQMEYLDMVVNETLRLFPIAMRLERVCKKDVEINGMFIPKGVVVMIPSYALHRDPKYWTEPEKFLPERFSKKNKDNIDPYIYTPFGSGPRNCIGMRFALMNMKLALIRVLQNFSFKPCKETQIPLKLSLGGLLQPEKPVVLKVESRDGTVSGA

syngeneic tumor = test: Re-challenge of cured tumor-bearing mice with the same syngeneic tumor; type: in vivo; conditions: tumor-bearing mice cured following treatment with Compound 1
BCRP = target: T1, BCRP (Homo sapiens, UniProt Q9UNQ0); test: BCRP substrate assessment in vitro; type: in vitro ADME
T1 sequence (Q9UNQ0 1-655): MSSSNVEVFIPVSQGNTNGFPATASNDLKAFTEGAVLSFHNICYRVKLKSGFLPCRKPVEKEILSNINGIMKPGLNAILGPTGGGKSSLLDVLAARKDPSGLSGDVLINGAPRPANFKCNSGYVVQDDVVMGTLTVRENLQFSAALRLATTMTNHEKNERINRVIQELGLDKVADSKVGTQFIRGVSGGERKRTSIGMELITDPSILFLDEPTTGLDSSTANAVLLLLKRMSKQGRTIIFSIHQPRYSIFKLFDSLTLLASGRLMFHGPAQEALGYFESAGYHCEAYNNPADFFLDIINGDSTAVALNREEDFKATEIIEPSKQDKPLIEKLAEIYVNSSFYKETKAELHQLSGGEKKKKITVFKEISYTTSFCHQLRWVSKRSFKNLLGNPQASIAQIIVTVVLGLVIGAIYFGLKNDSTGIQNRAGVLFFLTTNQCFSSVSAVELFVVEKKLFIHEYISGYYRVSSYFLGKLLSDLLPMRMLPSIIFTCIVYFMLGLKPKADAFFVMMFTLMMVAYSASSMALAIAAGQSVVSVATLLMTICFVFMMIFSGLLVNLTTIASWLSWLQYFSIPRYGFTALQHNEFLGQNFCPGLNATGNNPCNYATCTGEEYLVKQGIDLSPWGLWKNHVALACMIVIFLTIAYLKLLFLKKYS

Sprague Dawley rats = test: 28-day repeat dose oral toxicity and toxicokinetic study with 28-day recovery period; type: in vivo
P-gp = P-gp (Homo sapiens, UniProt P08183); test: P-gp inhibition; type: in vitro ADME
Sequence of P-gp (P08183 whole entry): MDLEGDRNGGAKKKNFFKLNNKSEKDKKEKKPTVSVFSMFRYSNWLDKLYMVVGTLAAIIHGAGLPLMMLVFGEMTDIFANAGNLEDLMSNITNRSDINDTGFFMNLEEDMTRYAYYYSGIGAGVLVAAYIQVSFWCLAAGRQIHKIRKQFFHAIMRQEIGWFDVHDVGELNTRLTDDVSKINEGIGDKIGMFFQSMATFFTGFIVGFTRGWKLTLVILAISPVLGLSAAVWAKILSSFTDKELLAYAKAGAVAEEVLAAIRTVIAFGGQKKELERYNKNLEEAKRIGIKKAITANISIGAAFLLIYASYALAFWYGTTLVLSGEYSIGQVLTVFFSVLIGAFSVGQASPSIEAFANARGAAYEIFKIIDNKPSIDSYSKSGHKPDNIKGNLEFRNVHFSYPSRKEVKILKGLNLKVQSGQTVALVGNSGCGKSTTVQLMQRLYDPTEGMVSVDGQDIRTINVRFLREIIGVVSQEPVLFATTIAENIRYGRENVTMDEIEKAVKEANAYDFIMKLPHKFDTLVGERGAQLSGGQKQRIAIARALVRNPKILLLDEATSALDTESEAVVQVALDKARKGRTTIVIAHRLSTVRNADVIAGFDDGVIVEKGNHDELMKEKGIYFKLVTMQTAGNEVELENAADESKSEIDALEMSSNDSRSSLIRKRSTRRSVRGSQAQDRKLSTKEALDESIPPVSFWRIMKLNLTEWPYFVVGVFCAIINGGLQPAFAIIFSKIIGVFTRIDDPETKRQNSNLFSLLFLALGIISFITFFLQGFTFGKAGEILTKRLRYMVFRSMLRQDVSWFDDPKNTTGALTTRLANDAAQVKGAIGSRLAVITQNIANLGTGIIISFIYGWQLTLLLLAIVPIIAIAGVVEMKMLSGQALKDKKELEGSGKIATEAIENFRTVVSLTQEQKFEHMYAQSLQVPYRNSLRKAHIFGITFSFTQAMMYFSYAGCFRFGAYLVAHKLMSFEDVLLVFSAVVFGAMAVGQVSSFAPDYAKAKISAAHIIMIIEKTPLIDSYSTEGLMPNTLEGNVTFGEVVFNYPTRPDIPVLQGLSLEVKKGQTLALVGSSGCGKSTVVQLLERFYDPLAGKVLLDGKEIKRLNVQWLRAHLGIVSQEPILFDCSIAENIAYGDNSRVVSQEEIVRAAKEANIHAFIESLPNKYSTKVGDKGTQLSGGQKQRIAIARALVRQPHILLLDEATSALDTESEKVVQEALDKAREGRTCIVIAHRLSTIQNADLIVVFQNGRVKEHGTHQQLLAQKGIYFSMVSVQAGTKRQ

[2] = Compound 1 50 mg/kg PO BID Days 10-16 (7 days) in combination with anti-PD-1 200 μg IP BIW (Days 10, 13, 17, 20)
[3] = Compound 1 50 mg/kg PO BID Days 10-16 and Days 24-30 (interval schedule) in combination with anti-PD-1 200 μg IP BIW (Days 10, 13, 17, 20)
[4] = Compound 1 50 mg/kg PO BID Days 10-23 (14 days) in combination with anti-PD-1 200 μg IP BIW (Days 10, 13, 17, 20)
[5] = Compound 1 50 mg/kg PO BID Days 10-30 (21 days) in combination with anti-PD-1 200 μg IP BIW (Days 10, 13, 17, 20)
[6] = Compound 1 50 mg/kg PO BID Days 10-37 (28 days) in combination with anti-PD-1 200 μg IP BIW (Days 10, 13, 17, 20)
[7] = Compound 1 monotherapy, 50 mg/kg PO BID Days 10-37 (28 days)
[8] = oral QD 28 days at 30, 100 or 300/200 mg/kg

With CC(C)n1cc(C(=O)Nc2ccc(Oc3ccnc4[nH]nc(N[C@H](C)CO)c34)c(F)c2)c(=O)n(-c2ccc(F)cc2)c1=O [Compound 1, (R)—N-(3-fluoro-4-((3-((1-hydroxypropan-2-yl)amino)-1H-pyrazolo[3,4-b]pyridin-4-yl)oxy)phenyl)-3-(4-fluorophenyl)-1-isopropyl-2,4-dioxo-1,2,3,4-tetrahydropyrimidine-5-carboxamide] the NOAEL at 7 days (in vivo) was 200 mg/kg, the “tolerability of doses and schedules” value ([1]; MC-38 study, Compound 1 50 mg/kg BID 7-28 days, monotherapy or with anti-PD-1 200 μg BIW, 50 mg/kg) was “tolerated as monotherapy and in combination with anti-PD-1; also recorded: tolerated at these doses and schedules” and the “Deaths (any cause)” value [1, 2] was 0/8. The “Maximum % Body Weight Loss” value [1, 2] was 0.00%, the “Deaths (any cause)” value [1, 3] was 0/8 and the “Maximum % Body Weight Loss” value [1, 3] was 0.23%. For the same compound, the “Deaths (any cause)” value [1, 4] was 0/8, the “Maximum % Body Weight Loss” value [1, 4] was 0.00% and the “Deaths (any cause)” value [1, 5] was 0/8. The “Maximum % Body Weight Loss” value [1, 5] was 2.98%, the “Deaths (any cause)” value [1, 6] was 1/8 and the “Maximum % Body Weight Loss” value [1, 6] was 0.00%. For the same compound, the “Deaths (any cause)” value [1, 7] was 2/8, the “Maximum % Body Weight Loss” value [1, 7] was 5.17% and the “metabolizing enzyme in vitro” value (CYP3A4) was “primarily metabolized by CYP3A4 and CYP2D6”. For the same compound, the “response of cured mice to subsequent re-challenge with the same syngeneic tumor” value (syngeneic tumor) was “resistant to subsequent re-challenge with the same syngeneic tumor”, the BCRP substrate status (BCRP) was “substrate of P-gp and BCRP” and the “adversity of changes in the eyes and testes” value (Sprague Dawley rats; oral QD 28 days) was “considered to be adverse”. The “dose with structural/functional changes in the eyes (outer retinal atrophy), female” value (Sprague Dawley rats; [8]) was 30 mg/kg, the “dose with structural/functional changes in the eyes (outer retinal atrophy), males” value (Sprague Dawley rats; [8]) was 100 mg/kg and the “reversibility of outer retinal atrophy” value (Sprague Dawley rats; oral QD 28 days, 28-day recovery period) was “unrecoverable”. The P-gp inhibitor status (P-gp) was “inhibitor of P-gp”.
